Test results: patent publication US20190029970A1, “FATTY ACID CONJUGATED NANOPARTICLES AND USES THEREOF” (The Chinese University of Hong Kong, priority 2017, published 2019)

Assay: In vitro release of curcumin by dialysis in 0.1% Tween 20 at 37° C.
Type: physicochemical
Conditions: within 24 hours; free curcumin 2 mg/mL in 2-propanol
Protocol: The in vitro release profiles of the drug-loaded NPs were assessed in 0.1% Tween 20 at 37° C. based on a dialysis method reported earlier with modifications. Briefly, 1 mL of the NPs was added into a dialysis tube (Float-A-lyzer G2 with a membrane MWCO 3.5-5 kD, Spectrum Laboratories, Inc., Rancho Dominguez, Calif., USA), which was subsequently placed in 250 mL of 0.1% Tween 20 at 37° C. Dialysate was replaced periodically. Samples (10 μL) were withdrawn from the dialysis tube at designated time points. The samples collected were analyzed using a UPLC-UV method and GraphPad Prism 5 was employed to plot the cumulative drug release versus time. The diffusional behaviour of curcumin (2 mg/mL in isopropanol) was also determined using the same procedure, except the dialysate was replaced with isopropanol.

curcumin released: > 80%
SMILES: COc1cc(/C=C/C(=O)CC(=O)/C=C/c2ccc(O)c(OC)c2)ccc1O [free curcumin, curcumin]
